Measured values reported in patent publication US20070231838A1, “Method for the assay of rock kinase activity in cells” (priority 2006, published 2007).

System: ROCK kinase
Experiment: Immunoblotting of MYPT1 phosphorylation in Panc-1 cells treated with ROCK inhibitors
Format: cell-based, human
Conditions: for rank order of potency for reduction of MYPT1 phosphorylation: 1 h incubation, immunoblotting (FIG. 5A)
Method: FIG. 3: Extraction of cytoskeletal substrates of ROCK1/ROCK2 from Pancd cell extracts: (A) Panc-1 cells were incubated in the presence and absence of 10 μM ROCK inhibitor Y27632 for 1 h followed by lysis in the indicated buffers. Equal fractions of cell lysate were analyzed by immunoblotting for pMYPT1 (T696 or T853), total MYPT1, pMLC (S19) and total MLC. (B) 10 μL aliquots of Panc-1 cell lysate prepared in PROTEOEXTRACT® buffer (or buffer alone for control wells) were diluted in buffer A as indicated prior to addition to MYPT1 antibody-coated ELISA assay plate wells. Quantitation of the extent of MYPT1 (T853) phosphorylation was performed in triplicate assay wells as described in the methods section. Results plotted are mean signal intensities, error bars represent Standard Deviations.
FIG. 4: Time course of reduction of MYPT1 phosphorylation bv ROCK inhibitors in Pancl cells: Panc-1 cells were incubated in the presence and absence of 10 μM ROCK inhibitor Y27632 for the indicated time points followed by lysis in SDS-PAGE sample buffer. Equal fractions of cell lysate were then analyzed by immunoblotting for pMYPT1 (T696 or T853) and total MYPT1 protein.
FIG. 5: Effect of ROCK inhibitors on MYPT1 (T853) phosphorylation in Panc-1 cells: (A) Panc-1 cells were incubated in the presence and absence of the indicated concentrations of ROCK inhibitors H1152, Y27632 or HA1077 for 1 h, followed by lysis in SDS-PAGE sample buffer. Equal fractions of cell lysate were then analyzed by immunoblotting for pMYPT1 (T696 or T853) and total MYPT1 protein. (B) Panc1 cells were grown in 96-well culture plates, and incubated for 1 h with the indicated concentrations of compound ROCK inhibitors H1152, Y27632 or HA1077. Lysates were then prepared in PROTEOEXTRACT® buffer, and analyzed in the pMYPT1 (T853) ELISA assay as described in the Methods section.
Human cancer cell lines were purchased from the American Type Culture Collection (ATCC). Panc-1 cells were grown in Dulbecco's modified Eagle's medium with 2 mM L-glutamine adjusted to contain 3.7 g/L sodium bicarbonate and 4.5 g/L glucose, 10% fetal bovine serum. All other cell lines were grown in media as prescribed by the ATCC, containing 10% FCS.
Lysates were prepared from cultured cells, following a brief rinse in PBS, using several different buffers. Buffer A (50 mM Tris-HCl, pH 7.4, 150 mM NaCl, 10% glycerol, 1% Triton X-100, 0.5 mM EDTA, 1 mM […], […], lmg/ml aprotinin) and buffer B (RIPA buffer: Sigma catalog #R0278, containing protease and phosphatase inhibitor cocktails Sigma catalog #P2850, P5726 P8340) were added to the cells in culture dishes, the cells were scraped from the dish and the lysates transferred to eppendorf tubes and incubated at 4° C. for 20 min. Lysates were then clarified by centrifugation at 10,000 g, and the resulting supernatants were stored at −80° C. prior to the addition of SDS-PAGE sample buffer and analysis by immunoblotting. Alternatively, lysates were prepared by the direct addition of SDS-PAGE sample buffer to the cultures, and samples were prepared for analysis by sonication for 5 min followed by heating to 100° C. for 5 min. Alternatively, lysates were prepared by the addition of PROTEOEXTRACT® solution (complete mammalian proteome extraction kit, Calbiochem, #539779) including 16.5 IU of BENZONASE® (Novagen, Inc., Madison, Wis.) followed by shaking for 30 minutes at room temperature. Samples prepared by this method were either diluted directly into SDS-PAGE sample buffer for analysis by immunoblotting, or were diluted 10-fold in buffer A for analysis in antibody capture ELISA assays. Tumor lysates were prepared using the PROTEOEXTRACT® complete mammalian proteome extraction kit (Calbiochem, #539779). Approximately 300 mg samples of tumor sample were homogenized and dispersed in […] resuspension buffer, then 2.4 mL extraction reagent and 150 μl reducing agent were added and the samples were mixed thoroughly. […]

[1] = 10 μM for 1 h prior to lysis, immunoblotting (FIG. 3)
[2] = 10 μM, time course up to 24 h (FIG. 4)

SMILES | rank order of potency for reduction of MYPT1 phosphorylation | level of MYPT1 phosphorylation [1] | total MYPT1 protein content of the extracts [1] | incubation time necessary to maximally reduce steady-state phosphorylation of MYPT1 T696 [2] | time to maximal reduction of steady-state phosphorylation of MYPT1 (T853) [2] [min]
Cc1cncc2cccc(S(=O)(=O)N3CCCNC[C@@H]3C)c12 [H1152] | H1152>Y27632>HA1077 |  |  |  | 
O=S(=O)(c1cccc2cnccc12)N1CCCNCC1 [HA1077] | H1152>Y27632>HA1077 |  |  |  | 
C[C@@H](N)[C@H]1CC[C@H](C(=O)Nc2ccncc2)CC1 [Y27632] | H1152>Y27632>HA1077 | significantly reduced | without affecting significantly | at least 8 hours | 30 to 60
